Test results from patent US6737383B1, “Herbicidal oxadiazolidines” (priority 1999, dated 2004).

Columns and labels:
bedstraw = assay: Test B pre/postemergence bedstraw; format: in vivo, Galium aparine
Outline: (§1)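 Herbicidal effect was estimated by eye on a ten-point control scale after plants spent twelve to sixteen days in a greenhouse following soil or foliar treatment. Foliar sprays targeted plants at one to four leaves; all doses were formulated in a non-phytotoxic solvent with surfactant.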

blackgrass = assay: Test B pre/postemergence blackgrass; format: in vivo, Alopecurus myosuroides
Outline: as §1

giant foxtail = assay: Test B pre/postemergence giant foxtail; format: in vivo, Setaria faberii
Outline: as §1

morningglory = assay: Test B pre/postemergence morningglory; format: in vivo, Ipomoea hederacea
Outline: as §1

pigweed = assay: Test B pre/postemergence pigweed; format: in vivo, Amaranthus retroflexus
Outline: as §1

rape = assay: Test B pre/postemergence rape; format: in vivo, Brassica napus
Outline: as §1

soybean = assay: Test B pre/postemergence soybean; format: in vivo, Glycine max
Outline: as §1

sugar beet = assay: Test B pre/postemergence sugar beet; format: in vivo, Beta vulgaris
Outline: as §1

velvetleaf = assay: Test B pre/postemergence velvetleaf; format: in vivo, Abutilon theophrasti
Outline: as §1

wheat = assay: Test B pre/postemergence wheat; format: in vivo, Triticum aestivum
Outline: as §1

wild oat = assay: Test B pre/postemergence wild oat; format: in vivo, Avena fatua
Outline: as §1

purple nutsedge = assay: Test B pre/postemergence purple nutsedge; format: in vivo, Cyperus rotundus; settings: Postemergence
Outline: as §1

rice = assay: Test B flood test rice; format: in vivo, Oryza sativa
Outline: (§2)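 Read-out is a visual response score from 0 (no effect) to 10 (complete control), assigned by comparison with untreated controls. Treatment was applied at the 2-leaf stage, and plants stayed in the greenhouse for twelve to sixteen days before scoring.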

smallflower flatsedge = assay: Test B flood test smallflower flatsedge; format: in vivo, Cyperus difformis
Outline: as §2

duck salad = assay: Test B flood test duck salad; format: in vivo, Heteranthera limosa
Outline: as §2

bamyardgrass = assay: Test B flood test barnyardgrass; format: in vivo, Echinochloa crus-galli
Outline: as §2

[1] = Preemergence, Rate 62 g/ha, scale of 0 to 10 where 0 is no effect and 10 is complete control
[2] = Preemergence, Rate 250 g/ha, scale of 0 to 10 where 0 is no effect and 10 is complete control
[3] = Preemergence, Rate 500 g/ha, scale of 0 to 10 where 0 is no effect and 10 is complete control
[4] = Rate 62 g/ha, Postemergence, scale of 0 to 10 where 0 is no effect and 10 is complete control
[5] = Rate 125 g/ha, Postemergence, scale 0 to 10
[6] = Rate 125 g/ha, Preemergence, scale of 0 to 10 where 0 is no effect and 10 is complete control
[7] = Rate 500 g/ha, Postemergence, scale 0 to 10, 0 no effect, 10 complete control
[8] = Rate 62 g/ha, headed Pre-emergence (flood test species), scale 0 to 10 (0 no effect, 10 complete control)
[9] = Rate 125 g/ha, Pre-emergence, flood test species, scale 0 to 10 where 0 is no effect and 10 is complete control
[10] = Rate 250 g/ha, Pre-emergence, flood-test species, scale 0 to 10, 0 is no effect, 10 is complete control
[11] = Rate 500 g/ha, Pre-emergence, flood test species, scale 0 to 10 (0 no effect, 10 complete control)

Cc1ccccc1N(C(=O)n1oc(=O)n(-c2ccccc2C)c1=O)C(C)C [Compound 236]
Bedstraw plant response rating (bedstraw; [1]): 0
Bedstraw plant response rating (bedstraw; [2]): 0
Plant response rating, Bedstraw (bedstraw; [3]): 0
Bedstraw plant response rating (bedstraw; [4]): 0
Bedstraw plant response rating (bedstraw; [5]): 0
Bedstraw plant response rating (bedstraw; [6]): 0
Plant response rating (0 to 10; 0 is no effect, 10 is complete control), Bedstraw (bedstraw; Rate 250 g/ha, Postemergence): 0
Bedstraw plant response rating (bedstraw; [7]): 4
Blackgrass plant response rating (blackgrass; [1]): 0
Blackgrass plant response rating (blackgrass; [2]): 5
Plant response rating, Blackgrass (blackgrass; [3]): 5
Blackgrass plant response rating (blackgrass; [4]): 0
Blackgrass plant response rating (blackgrass; [5]): 0
Blackgrass plant response rating (blackgrass; [6]): 2
Plant response rating (0 to 10; 0 is no effect, 10 is complete control), Blackgrass (blackgrass; Rate 250 g/ha, Postemergence): 0
Blackgrass plant response rating (blackgrass; [7]): 0
Giant foxtail plant response rating (giant foxtail; [1]): 7
Giant foxtail plant response rating (giant foxtail; [2]): 9
Plant response rating, Giant foxtail (giant foxtail; [3]): 10
Giant foxtail plant response rating (giant foxtail; [4]): 0
Giant foxtail plant response rating (giant foxtail; [5]): 0
Giant foxtail plant response rating (giant foxtail; [6]): 7
Plant response rating (0 to 10; 0 is no effect, 10 is complete control), Giant foxtail (giant foxtail; Rate 250 g/ha, Postemergence): 0
Giant foxtail plant response rating (giant foxtail; [7]): 0
Morningglory plant response rating (morningglory; [1]): 0
Morningglory plant response rating (morningglory; [2]): 0
Plant response rating, Morningglory (morningglory; [3]): 0
Morningglory plant response rating (morningglory; [4]): 4
Morningglory plant response rating (morningglory; [5]): 4
Morningglory plant response rating (morningglory; [6]): 0
Plant response rating (0 to 10; 0 is no effect, 10 is complete control), Morningglory (morningglory; Rate 250 g/ha, Postemergence): 5
Morningglory plant response rating (morningglory; [7]): 6
Redroot pigweed plant response rating (pigweed; [1]): 0
Redroot pigweed plant response rating (pigweed; [2]): 0
Plant response rating, Redroot pigweed (pigweed; [3]): 0
Redroot pigweed plant response rating (pigweed; [4]): 0
Redroot pigweed plant response rating (pigweed; [5]): 0
Redroot pigweed plant response rating (pigweed; [6]): 0
Plant response rating (0 to 10; 0 is no effect, 10 is complete control), Redroot pigweed (pigweed; Rate 250 g/ha, Postemergence): 0
Redroot pigweed plant response rating (pigweed; [7]): 0
Rape plant response rating (rape; [1]): 0
Rape plant response rating (rape; [2]): 0
Plant response rating, Rape (rape; [3]): 0
Rape plant response rating (rape; [4]): 0
Rape plant response rating (rape; [5]): 0
Rape plant response rating (rape; [6]): 0
Plant response rating (0 to 10; 0 is no effect, 10 is complete control), Rape (rape; Rate 250 g/ha, Postemergence): 0
Rape plant response rating (rape; [7]): 0
Soybean plant response rating (soybean; [1]): 0
Soybean plant response rating (soybean; [2]): 0
Plant response rating, Soybean (soybean; [3]): 0
Soybean plant response rating (soybean; [4]): 1
Soybean plant response rating (soybean; [5]): 1
Soybean plant response rating (soybean; [6]): 0
Plant response rating (0 to 10; 0 is no effect, 10 is complete control), Soybean (soybean; Rate 250 g/ha, Postemergence): 2
Soybean plant response rating (soybean; [7]): 3
Sugarbeets plant response rating (sugar beet; [1]): 0
Sugarbeets plant response rating (sugar beet; [2]): 0
Plant response rating, Sugarbeets (sugar beet; [3]): 0
Sugarbeets plant response rating (sugar beet; [4]): 0
Sugarbeets plant response rating (sugar beet; [5]): 0
Sugarbeets plant response rating (sugar beet; [6]): 0
Plant response rating (0 to 10; 0 is no effect, 10 is complete control), Sugarbeets (sugar beet; Rate 250 g/ha, Postemergence): 0
Sugarbeets plant response rating (sugar beet; [7]): 0
Velvetleaf plant response rating (velvetleaf; [1]): 0
Velvetleaf plant response rating (velvetleaf; [2]): 0
Plant response rating, Velvetleaf (velvetleaf; [3]): 0
Velvetleaf plant response rating (velvetleaf; [4]): 0
Velvetleaf plant response rating (velvetleaf; [5]): 0
Velvetleaf plant response rating (velvetleaf; [6]): 0
Plant response rating (0 to 10; 0 is no effect, 10 is complete control), Velvetleaf (velvetleaf; Rate 250 g/ha, Postemergence): 1
Velvetleaf plant response rating (velvetleaf; [7]): 3
Wheat plant response rating (wheat; [1]): 0
Wheat plant response rating (wheat; [2]): 0
Plant response rating, Wheat (wheat; [3]): 0
Wheat plant response rating (wheat; [4]): 0
Wheat plant response rating (wheat; [5]): 0
Wheat plant response rating (wheat; [6]): 0
Plant response rating (0 to 10; 0 is no effect, 10 is complete control), Wheat (wheat; Rate 250 g/ha, Postemergence): 0
Wheat plant response rating (wheat; [7]): 0
Wild oats plant response rating (wild oat; [1]): 0
Wild oats plant response rating (wild oat; [2]): 0
Plant response rating, Wild oats (wild oat; [3]): 2
Wild oats plant response rating (wild oat; [4]): 0
Wild oats plant response rating (wild oat; [5]): 0
Wild oats plant response rating (wild oat; [6]): 0
Plant response rating (0 to 10; 0 is no effect, 10 is complete control), Wild oats (wild oat; Rate 250 g/ha, Postemergence): 0
Wild oats plant response rating (wild oat; [7]): 0
Nutsedge plant response rating (purple nutsedge; Rate 62 g/ha, scale of 0 to 10 where 0 is no effect and 10 is complete control): 0
Nutsedge plant response rating (purple nutsedge; Rate 125 g/ha, scale 0 to 10): 0
Plant response rating (0 to 10; 0 is no effect, 10 is complete control), Nutsedge (purple nutsedge; Rate 250 g/ha): 0
Nutsedge plant response rating (purple nutsedge; Rate 500 g/ha, scale 0 to 10, 0 no effect, 10 complete control): 0
Rice plant response rating (rice; [8]): 0
Rice plant response rating (rice; [9]): 0
Rice plant response rating (rice; [10]): 0
Rice plant response rating (rice; [11]): 0
S. Flatsedge plant response rating (smallflower flatsedge; [8]): 0
S. Flatsedge plant response rating (smallflower flatsedge; [9]): 0
S. Flatsedge plant response rating (smallflower flatsedge; [10]): 0
S. Flatsedge plant response rating (smallflower flatsedge; [11]): 0
Ducksalad plant response rating (duck salad; [8]): 0
Ducksalad plant response rating (duck salad; [9]): 0
Ducksalad plant response rating (duck salad; [10]): 0
Ducksalad plant response rating (duck salad; [11]): 0
Barnyardgrass plant response rating (bamyardgrass; [8]): 0
Barnyardgrass plant response rating (bamyardgrass; [9]): 0
Barnyardgrass plant response rating (bamyardgrass; [10]): 0
Barnyardgrass plant response rating (bamyardgrass; [11]): 0
